Our source for the Ki, pKa and Effect values is ChEMBL document CHEMBL1136222, “1-Benzyloxy-4,5-dihydro-1H-imidazol-2-yl-amines, a novel class of NR1/2B subtype selective NMDA receptor antagonists” (Bioorg Med Chem Lett, 2003).

Some results are limits rather than exact numbers.

One may read the Ki as a measure of affinity in units of concentration, obtained from inhibition or displacement. For orientation: pKa means the pH at which an ionisable group is half protonated.

Data set [1] has as its target Glutamate NMDA receptor. Kind of data set: Binding affinity for N-methyl-D-aspartate glutamate receptor was measured through displacement of [3H]25-6981. It is filed as protein-complex assay. Background: Loss of bound radioactivity is the signal in a displacement assay; it reports binding, not function.
Data set [2] in a line: pKa value was determined. It counts as physicochemical.
Data set [3] is filed under the species Rattus norvegicus. Kind of data set: Effect on K+ channels in rat cortical neurones at 10 uM. It counts as functional.
Data set [4] deals with T1, Adrenergic receptor alpha-2 (Rattus norvegicus, UniProt P22086+P19328+P22909).
T1 sequence (P22086 whole entry): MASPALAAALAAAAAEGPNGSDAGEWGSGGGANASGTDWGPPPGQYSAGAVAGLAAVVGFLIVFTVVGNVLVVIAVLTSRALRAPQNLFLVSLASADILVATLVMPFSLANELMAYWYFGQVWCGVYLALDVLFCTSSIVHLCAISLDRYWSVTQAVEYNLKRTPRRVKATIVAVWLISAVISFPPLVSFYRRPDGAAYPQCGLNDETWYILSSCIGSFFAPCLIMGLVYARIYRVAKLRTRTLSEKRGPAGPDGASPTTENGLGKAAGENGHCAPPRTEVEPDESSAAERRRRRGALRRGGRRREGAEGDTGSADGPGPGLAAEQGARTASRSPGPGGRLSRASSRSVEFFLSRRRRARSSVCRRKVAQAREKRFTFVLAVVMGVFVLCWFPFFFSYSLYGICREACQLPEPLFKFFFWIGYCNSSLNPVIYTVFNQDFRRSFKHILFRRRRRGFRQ
T1 sequence (P19328 whole entry): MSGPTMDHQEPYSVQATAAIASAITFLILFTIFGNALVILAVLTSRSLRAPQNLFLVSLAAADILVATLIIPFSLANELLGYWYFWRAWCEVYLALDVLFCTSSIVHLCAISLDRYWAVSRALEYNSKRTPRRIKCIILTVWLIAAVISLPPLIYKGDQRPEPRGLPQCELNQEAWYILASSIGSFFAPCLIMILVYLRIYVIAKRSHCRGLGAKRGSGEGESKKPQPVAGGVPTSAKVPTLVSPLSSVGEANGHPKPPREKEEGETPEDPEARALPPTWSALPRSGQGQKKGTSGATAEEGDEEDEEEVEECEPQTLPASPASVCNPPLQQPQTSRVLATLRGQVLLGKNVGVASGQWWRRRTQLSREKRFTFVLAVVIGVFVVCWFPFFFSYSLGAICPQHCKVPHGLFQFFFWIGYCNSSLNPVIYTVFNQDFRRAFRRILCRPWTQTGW
T1 sequence (P22909 whole entry): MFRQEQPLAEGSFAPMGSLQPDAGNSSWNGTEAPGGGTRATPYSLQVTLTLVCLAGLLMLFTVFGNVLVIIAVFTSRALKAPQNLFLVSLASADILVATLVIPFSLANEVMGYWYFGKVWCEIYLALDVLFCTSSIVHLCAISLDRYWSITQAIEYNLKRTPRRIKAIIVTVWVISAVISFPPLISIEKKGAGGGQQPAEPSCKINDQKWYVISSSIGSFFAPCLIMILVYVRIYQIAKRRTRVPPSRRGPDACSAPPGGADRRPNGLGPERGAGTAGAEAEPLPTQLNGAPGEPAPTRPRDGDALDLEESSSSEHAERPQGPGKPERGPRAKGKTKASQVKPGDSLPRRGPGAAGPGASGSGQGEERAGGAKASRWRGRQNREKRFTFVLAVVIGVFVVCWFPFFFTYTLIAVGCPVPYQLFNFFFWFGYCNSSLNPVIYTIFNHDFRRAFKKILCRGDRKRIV
Kind of data set: Binding affinity towards Alpha-2 adrenergic receptor was measured through displacement of [3H]-RX-821002. It is filed as protein assay.

For data set [5], the target named is T2, Adrenergic receptor alpha-1 (Rattus norvegicus, UniProt P15823+P23944+P43140).
T2 sequence (P15823 whole entry): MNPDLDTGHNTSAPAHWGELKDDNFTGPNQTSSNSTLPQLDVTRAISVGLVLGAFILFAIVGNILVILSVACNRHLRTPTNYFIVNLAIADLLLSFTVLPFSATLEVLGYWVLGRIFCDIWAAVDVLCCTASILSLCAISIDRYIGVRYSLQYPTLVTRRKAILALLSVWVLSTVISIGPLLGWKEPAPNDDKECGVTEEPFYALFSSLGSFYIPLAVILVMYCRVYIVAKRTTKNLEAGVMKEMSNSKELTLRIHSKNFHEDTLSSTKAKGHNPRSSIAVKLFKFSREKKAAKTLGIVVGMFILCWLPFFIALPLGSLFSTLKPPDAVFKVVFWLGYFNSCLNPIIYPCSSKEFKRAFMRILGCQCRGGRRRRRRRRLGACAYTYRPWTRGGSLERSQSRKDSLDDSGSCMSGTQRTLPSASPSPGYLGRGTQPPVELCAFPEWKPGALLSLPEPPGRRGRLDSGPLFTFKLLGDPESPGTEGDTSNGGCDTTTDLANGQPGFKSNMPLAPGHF
T2 sequence (P23944 whole entry): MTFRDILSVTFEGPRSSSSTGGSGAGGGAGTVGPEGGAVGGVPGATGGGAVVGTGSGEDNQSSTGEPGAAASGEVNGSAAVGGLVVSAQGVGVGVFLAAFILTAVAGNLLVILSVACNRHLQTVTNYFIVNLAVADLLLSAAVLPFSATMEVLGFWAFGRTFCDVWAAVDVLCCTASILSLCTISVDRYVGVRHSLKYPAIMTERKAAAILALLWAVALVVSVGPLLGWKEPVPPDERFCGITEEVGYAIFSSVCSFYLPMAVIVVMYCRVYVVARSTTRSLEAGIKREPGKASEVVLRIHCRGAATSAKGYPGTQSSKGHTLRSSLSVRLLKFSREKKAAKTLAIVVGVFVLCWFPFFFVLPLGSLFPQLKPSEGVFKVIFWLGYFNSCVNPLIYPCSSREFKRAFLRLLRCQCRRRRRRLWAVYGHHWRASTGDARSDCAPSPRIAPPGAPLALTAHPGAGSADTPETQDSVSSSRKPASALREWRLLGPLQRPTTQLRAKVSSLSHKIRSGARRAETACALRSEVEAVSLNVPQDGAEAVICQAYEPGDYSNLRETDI
T2 sequence (P43140 whole entry): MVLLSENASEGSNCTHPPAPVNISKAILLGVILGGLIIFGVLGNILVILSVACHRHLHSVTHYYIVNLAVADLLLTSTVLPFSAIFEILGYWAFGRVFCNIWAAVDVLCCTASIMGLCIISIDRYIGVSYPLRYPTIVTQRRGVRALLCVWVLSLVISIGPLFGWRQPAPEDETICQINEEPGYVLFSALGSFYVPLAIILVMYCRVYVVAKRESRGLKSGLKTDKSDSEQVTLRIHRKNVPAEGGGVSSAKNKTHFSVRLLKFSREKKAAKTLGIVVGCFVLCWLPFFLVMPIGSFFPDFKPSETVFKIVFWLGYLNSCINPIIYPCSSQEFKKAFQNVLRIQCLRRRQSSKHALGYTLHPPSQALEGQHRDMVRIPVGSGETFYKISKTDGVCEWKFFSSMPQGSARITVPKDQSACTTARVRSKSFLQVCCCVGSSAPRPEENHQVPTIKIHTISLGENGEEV
Nature of the data set: Binding affinity towards Alpha-1 adrenergic receptor was measured through displacement of [3H]prazosin. It counts as protein assay.

With `CCCCCNC1=NCCN1OCc1cccc(F)c1`, in data set [1], the affinity, expressed as Ki, was 23 nM.

For `CCCCCNC1=NCCN1OCc1ccccc1C`, the Ki in data set [1] stood at 34 nM.

As to `CCCCCNC1=NCCN1OCc1ccc(F)cc1`, the affinity in data set [1], expressed as Ki, was 100 nM.

On to `CCCCCNC1=NCCN1OCc1ccc(C)cc1`, for which affinity in data set [1] was put at a Ki of 230 nM.

As for `CCCCNC1=NCCN1OCc1ccccc1`, the Ki in data set [1] was 60 nM.

As to `Oc1ccc(CCNC2=NCCN2OCc2ccccc2)cc1`, the Ki in data set [1] was 380 nM.

Turning to `CCCCCNC1=NCCN1CCc1ccccc1`, the pKa in data set [2] is over 12. For the same molecule, the Ki in data set [1] was 230 nM.

Take `CCCCCNC1=NCCN1OCc1ccc(OC)cc1`: in data set [1], the affinity corresponds to a Ki of 110 nM. This lies in the sub-micromolar range.

Molecule `CCCCCNC1=NCCN1OCc1ccccc1` registered a pKa in data set [2] of 10.1. In data set [3], this molecule came in with an Effect of 48%. In addition, the values for the Ki in data set [4] and in data set [5] were 30000 nM and 5500 nM, respectively.

Consider `CCCCCNC1=NCCN1OCc1ccc(Cl)cc1`, for which the affinity in data set [1] corresponds to a Ki of 170 nM.

In data set [2], `CCCCCNC1=NCCN1OCCCc1ccccc1` returned a pKa of 10. This molecule displayed a Ki in data set [1] of 980 nM.

In data set [2], `CCCCCNC1=NCCN1OCCc1ccccc1` displayed a pKa of 9.9. The molecule also showed an Effect in data set [3] of 63%. Moreover, the values for the Ki in data set [4] and in data set [5] were 10000 nM and 4900 nM, respectively.

In the case of `CCCCC/N=C1/CCCN1CCc1ccccc1`, in data set [2], the pKa is over 11.

`CCCCCNC1=NCCN1OCc1ccc(-c2ccccc2)cc1` gave a Ki in data set [1] of 1100 nM. This counts as single-digit micromolar.

In data set [1], `CCCCCNC1=NCCN1OCc1ccc([N+](=O)[O-])cc1` yielded a Ki of 1100 nM.

For the molecule `OCCNC1=NCCN1OCc1ccccc1`, the Ki in data set [1] was 2250 nM.

For `CCCCCNC1=NCCN1OCc1cccc(C)c1`, the affinity in data set [1], expressed as Ki, was 38 nM.

`C=CCNC1=NCCN1OCc1ccccc1` gave a Ki in data set [1] of 1100 nM.

Molecule `c1ccc(COCCNC2=NCCN2OCc2ccccc2)cc1` gave a Ki in data set [1] of 1500 nM.

`c1ccc(CON2CCN=C2NC2CC2)cc1` yielded a Ki in data set [1] of 260 nM.

Regarding `CCCCCSC1=NCCN1OCc1ccccc1`, the pKa in data set [2] came out at 8.5. For the same molecule, affinity in data set [1] was put at a Ki of 6000 nM.

For `c1ccc(CCCNC2=NCCN2OCc2ccccc2)cc1`, in data set [1], the affinity, expressed as Ki, was 750 nM.

`c1ccc(CON2CCN=C2NCc2cccnc2)cc1`: the affinity in data set [1] corresponds to a Ki of 380 nM.

Molecule `c1ccc(CNC2=NCCN2OCc2ccccc2)cc1` returned a Ki in data set [1] of 130 nM.

On to `c1ccc(CCCCNC2=NCCN2OCc2ccccc2)cc1`, for which affinity in data set [1] was put at a Ki of 380 nM. This Ki lies about 2.9-fold higher than the previous one.

On to `CCCCCNC1=NCCN1OCc1ccccc1OC`, for which affinity in data set [1] was put at a Ki of 280 nM. The Ki values of the last two molecules are within 1.5-fold of each other.

In data set [1], `CC(C)NC1=NCCN1OCc1ccccc1` came in with a Ki of 5600 nM.

With `CCCCNC1=NCCCN1OCc1ccccc1`, in data set [2], the pKa was over 12. Further, the Ki in data set [1] turned out to be 750 nM.

`CCCCCNC1=NCCN1OCc1ccccc1F`: the Ki in data set [1] is 15 nM. This lies in the double-digit nanomolar range.

The molecule `CCCCCCNC1=NCCN1OCc1ccccc1` returned a Ki in data set [1] of 75 nM.

Consider `CCCCCNC1=NCCN1OCc1cccs1`, for which the inhibition constant (Ki) in data set [1] amounted to 56 nM.

On to `CCCCCNC1=NCCN1OCc1ccccc1Cl`, for which the Ki in data set [1] worked out at 38 nM.

Molecule `c1ccc(CCNC2=NCCN2OCc2ccccc2)cc1` registered a Ki in data set [1] of 1100 nM.

For the molecule `CCCCCNC1=NCCN1OCc1cccc([N+](=O)[O-])c1`, the Ki in data set [1] worked out at 530 nM.

For the molecule `CCCCCNC1=NCCN1OCc1cccc(OC)c1`, in data set [1], the affinity, expressed as Ki, was 560 nM.

Consider `CCCCCNc1nc2ccccc2n1CCc1ccccc1`, for which the pKa in data set [2] came out at 7.4.
